Test results: PMC4718143, “A novel protocol for the one-pot borylation/Suzuki reaction provides easy access to hinge-binding groups for kinase inhibitors” (Organic & Biomolecular Chemistry, 2015)
Where two headings read alike, the source gives them in different places. Each block holds one compound with its values, some of them ahead of it.

How the values were obtained:
Assay type in all cases: biochemical
RSK1 = target: T1, RSK1 (Homo sapiens, UniProt Q15418); assay: ProfilerPro kinase panel, single concentration […]
T1 construct: gene RPS6KA1
T1 sequence (Q15418 whole entry): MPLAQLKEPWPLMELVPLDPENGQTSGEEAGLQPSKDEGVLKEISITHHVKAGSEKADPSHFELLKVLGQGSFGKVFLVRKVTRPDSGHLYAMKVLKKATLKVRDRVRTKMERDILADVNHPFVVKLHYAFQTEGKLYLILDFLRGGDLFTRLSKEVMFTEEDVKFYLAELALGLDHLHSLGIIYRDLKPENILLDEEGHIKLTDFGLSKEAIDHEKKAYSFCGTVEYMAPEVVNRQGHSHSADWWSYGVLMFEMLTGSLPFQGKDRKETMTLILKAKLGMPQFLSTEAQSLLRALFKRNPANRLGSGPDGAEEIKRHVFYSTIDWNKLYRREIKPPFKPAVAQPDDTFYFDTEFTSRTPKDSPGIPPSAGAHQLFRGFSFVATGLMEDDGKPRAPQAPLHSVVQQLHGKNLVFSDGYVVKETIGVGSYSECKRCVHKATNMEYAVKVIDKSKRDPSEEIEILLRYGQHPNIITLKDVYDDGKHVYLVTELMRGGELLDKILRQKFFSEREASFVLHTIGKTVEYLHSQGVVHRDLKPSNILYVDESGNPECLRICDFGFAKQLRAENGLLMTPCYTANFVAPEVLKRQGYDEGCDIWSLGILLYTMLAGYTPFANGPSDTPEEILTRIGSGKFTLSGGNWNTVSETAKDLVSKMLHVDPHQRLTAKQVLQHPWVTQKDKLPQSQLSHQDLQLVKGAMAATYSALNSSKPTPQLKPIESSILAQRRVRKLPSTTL

AurA = target: T2, AurA (Homo sapiens, UniProt O14965); assay: ProfilerPro kinase panel, single concentration […]
T2 construct: gene AURKA
T2 sequence (O14965 1-403): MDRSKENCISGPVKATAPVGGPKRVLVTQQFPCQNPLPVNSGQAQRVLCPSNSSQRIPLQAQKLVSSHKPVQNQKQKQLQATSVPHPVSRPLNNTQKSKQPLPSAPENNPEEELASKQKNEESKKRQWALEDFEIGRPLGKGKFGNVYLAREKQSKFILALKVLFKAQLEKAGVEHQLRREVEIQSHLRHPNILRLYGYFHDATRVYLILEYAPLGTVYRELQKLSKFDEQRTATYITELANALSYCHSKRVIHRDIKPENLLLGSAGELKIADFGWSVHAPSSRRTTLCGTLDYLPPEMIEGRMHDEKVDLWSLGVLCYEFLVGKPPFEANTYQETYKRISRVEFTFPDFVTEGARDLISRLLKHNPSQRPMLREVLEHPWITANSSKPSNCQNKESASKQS

CHK2 = target: T3, CHK2 (Homo sapiens, UniProt O96017); assay: ProfilerPro kinase panel, single concentration […]
T3 construct: gene CHEK2
T3 sequence (O96017 whole entry): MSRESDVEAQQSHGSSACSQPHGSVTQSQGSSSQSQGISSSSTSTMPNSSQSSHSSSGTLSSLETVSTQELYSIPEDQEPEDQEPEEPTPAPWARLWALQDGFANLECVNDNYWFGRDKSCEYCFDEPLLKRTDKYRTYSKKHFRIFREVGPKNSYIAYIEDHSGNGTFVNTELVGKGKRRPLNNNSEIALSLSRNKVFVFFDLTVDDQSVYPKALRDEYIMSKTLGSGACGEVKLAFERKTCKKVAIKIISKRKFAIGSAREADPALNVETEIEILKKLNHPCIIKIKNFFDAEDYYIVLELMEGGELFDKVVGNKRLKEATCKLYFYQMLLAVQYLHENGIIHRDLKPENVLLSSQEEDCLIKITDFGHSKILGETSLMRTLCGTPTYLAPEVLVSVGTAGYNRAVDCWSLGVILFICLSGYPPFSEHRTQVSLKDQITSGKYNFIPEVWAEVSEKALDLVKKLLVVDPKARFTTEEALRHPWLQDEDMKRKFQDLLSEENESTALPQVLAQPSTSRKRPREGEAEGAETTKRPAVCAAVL

PKD2 = target: T4, PKD2 (Homo sapiens, UniProt Q9BZL6); assay: ProfilerPro kinase panel, single concentration […]
T4 construct: gene PRKD2
T4 sequence (Q9BZL6 1-878): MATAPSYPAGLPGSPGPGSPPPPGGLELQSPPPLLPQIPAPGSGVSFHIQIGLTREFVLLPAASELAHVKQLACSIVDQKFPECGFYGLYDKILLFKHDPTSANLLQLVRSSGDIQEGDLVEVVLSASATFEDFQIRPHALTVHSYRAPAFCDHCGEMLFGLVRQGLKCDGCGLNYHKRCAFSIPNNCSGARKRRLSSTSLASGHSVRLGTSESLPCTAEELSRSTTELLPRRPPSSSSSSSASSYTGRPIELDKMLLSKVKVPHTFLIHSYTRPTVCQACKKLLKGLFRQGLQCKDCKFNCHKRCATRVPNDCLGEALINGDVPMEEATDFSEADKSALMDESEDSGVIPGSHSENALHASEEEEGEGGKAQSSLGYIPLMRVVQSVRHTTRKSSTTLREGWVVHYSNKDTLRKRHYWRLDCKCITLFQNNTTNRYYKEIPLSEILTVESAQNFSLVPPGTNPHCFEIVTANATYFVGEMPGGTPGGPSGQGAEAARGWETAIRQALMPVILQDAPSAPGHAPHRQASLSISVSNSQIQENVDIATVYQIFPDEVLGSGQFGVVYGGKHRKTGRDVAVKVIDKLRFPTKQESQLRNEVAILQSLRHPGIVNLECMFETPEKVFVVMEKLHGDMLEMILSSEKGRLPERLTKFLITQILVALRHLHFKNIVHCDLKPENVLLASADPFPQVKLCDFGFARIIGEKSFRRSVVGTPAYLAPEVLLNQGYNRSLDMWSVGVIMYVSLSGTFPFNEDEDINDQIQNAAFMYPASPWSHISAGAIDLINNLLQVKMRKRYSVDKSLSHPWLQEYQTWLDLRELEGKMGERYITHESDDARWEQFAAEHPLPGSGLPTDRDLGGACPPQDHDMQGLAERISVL

INSR = INSR (Homo sapiens, UniProt P06213); assay: ProfilerPro kinase panel, single concentration […]
Chain of INSR (P06213 28-758): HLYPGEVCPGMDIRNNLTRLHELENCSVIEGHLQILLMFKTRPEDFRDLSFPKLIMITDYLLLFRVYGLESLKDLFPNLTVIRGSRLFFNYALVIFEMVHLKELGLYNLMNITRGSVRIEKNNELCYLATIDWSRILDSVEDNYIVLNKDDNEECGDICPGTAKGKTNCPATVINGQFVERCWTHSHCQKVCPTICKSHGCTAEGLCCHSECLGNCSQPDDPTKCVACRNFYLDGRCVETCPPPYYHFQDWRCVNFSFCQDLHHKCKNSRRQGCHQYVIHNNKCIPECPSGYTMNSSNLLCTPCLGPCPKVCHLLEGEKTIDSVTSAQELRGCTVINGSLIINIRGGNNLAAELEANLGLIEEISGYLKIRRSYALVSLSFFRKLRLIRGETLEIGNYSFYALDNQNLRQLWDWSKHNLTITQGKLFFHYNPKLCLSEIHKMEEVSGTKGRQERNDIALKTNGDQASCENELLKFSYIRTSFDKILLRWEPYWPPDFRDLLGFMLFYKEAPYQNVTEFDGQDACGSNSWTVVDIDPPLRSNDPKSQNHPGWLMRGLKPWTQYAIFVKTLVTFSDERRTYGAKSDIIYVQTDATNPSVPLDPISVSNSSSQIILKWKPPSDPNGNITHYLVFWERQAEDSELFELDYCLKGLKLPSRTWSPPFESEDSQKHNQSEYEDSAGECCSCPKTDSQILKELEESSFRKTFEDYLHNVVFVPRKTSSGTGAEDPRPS
Chain of INSR (P06213 763-1382): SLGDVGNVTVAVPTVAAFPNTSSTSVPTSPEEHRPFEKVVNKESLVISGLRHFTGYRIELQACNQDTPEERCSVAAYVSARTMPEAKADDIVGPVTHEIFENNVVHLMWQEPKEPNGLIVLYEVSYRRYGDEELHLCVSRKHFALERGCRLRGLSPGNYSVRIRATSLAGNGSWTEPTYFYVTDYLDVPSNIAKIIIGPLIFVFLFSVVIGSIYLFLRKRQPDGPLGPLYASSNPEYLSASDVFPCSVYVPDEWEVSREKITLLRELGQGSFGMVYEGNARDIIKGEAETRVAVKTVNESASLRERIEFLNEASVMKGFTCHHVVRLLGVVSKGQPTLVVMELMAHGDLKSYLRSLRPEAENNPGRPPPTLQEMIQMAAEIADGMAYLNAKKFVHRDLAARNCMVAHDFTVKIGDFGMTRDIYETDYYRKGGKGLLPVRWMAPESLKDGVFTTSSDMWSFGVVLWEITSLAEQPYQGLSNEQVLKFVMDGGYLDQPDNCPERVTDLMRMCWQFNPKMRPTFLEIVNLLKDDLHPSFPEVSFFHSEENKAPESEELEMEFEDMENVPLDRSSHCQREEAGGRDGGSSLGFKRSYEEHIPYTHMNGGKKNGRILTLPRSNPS

ABL [1] = target: T5, ABL (Homo sapiens, UniProt P00519); assay: kinase inhibition IC50 (Invitrogen), following ProfilerPro kinase panel ([…] at […])
T5 construct: gene ABL1
T5 sequence (P00519 whole entry): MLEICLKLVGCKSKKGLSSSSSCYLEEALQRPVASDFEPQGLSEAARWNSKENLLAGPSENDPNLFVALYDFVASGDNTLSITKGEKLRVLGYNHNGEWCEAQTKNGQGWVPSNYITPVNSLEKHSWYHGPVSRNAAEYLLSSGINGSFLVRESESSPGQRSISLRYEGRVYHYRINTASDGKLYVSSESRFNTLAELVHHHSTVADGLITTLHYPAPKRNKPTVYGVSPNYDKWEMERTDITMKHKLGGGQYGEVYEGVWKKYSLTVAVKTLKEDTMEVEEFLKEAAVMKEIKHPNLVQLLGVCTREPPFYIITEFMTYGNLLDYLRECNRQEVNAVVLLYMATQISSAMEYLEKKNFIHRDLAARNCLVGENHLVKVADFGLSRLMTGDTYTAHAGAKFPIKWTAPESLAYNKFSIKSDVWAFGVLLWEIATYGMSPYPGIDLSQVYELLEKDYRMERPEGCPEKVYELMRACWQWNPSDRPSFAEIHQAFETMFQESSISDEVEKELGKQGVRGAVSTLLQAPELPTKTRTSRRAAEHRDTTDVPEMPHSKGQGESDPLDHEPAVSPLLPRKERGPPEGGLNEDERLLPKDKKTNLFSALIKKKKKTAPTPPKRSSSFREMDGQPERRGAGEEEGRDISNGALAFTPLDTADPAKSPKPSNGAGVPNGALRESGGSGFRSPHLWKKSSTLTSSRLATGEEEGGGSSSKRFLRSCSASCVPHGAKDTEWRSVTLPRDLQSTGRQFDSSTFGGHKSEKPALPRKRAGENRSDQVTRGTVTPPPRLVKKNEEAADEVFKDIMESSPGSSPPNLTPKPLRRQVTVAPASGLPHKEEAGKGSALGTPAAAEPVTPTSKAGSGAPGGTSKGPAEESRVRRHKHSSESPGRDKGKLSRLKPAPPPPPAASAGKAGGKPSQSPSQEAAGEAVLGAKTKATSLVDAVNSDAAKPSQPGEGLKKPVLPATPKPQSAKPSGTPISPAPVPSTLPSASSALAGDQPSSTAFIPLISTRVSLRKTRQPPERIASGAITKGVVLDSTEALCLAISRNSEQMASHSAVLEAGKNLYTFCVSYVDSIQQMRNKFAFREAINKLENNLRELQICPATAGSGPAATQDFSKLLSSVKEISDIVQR

ABL [2] = target: T5, ABL; assay: as above; remark: listed apart in the source

- inhibition at 300 µM (RSK1): 91%
SMILES: Clc1ccc(-c2cnc3[nH]ccc3c2)cc1 [4j]

- inhibition at 300 µM (AurA): 99%
- inhibition at 300 µM (CHK2): 91%
- inhibition at 300 µM (PKD2): 92%
- inhibition at 300 µM (INSR): 93%
SMILES: c1ccc(-c2cnc3[nH]ccc3c2)cc1 [4n]

- IC50 (ABL [1]): 8.11 µM
SMILES: c1ccc(-c2ccc3ncccc3c2)cc1 [4o]

- IC50 (ABL [2]): 19.2 µM
SMILES: Clc1ccnc2ccc(-c3ccccc3)cc12 [4p]
